Experimental findings from ChEMBL document CHEMBL1201862, “PubChem BioAssay data set” (2004) are described below.

Active and inactive are the calls of the source.

Assay [1] is described as follows: Luminescence Cell-Based Dose Response HTS to Identify Activators of Luciferase Translation or Activity in H4 […] Cells. [Related pubchem assays: 1829 (Project Summary), 1814 (Primary HTS)]. The assay is classed as functional.
The target of assay [2] is T1, Replicative DNA helicase DnaB (Mycobacterium tuberculosis, UniProt P9WMR3).
T1 sequence (P9WMR3 whole entry): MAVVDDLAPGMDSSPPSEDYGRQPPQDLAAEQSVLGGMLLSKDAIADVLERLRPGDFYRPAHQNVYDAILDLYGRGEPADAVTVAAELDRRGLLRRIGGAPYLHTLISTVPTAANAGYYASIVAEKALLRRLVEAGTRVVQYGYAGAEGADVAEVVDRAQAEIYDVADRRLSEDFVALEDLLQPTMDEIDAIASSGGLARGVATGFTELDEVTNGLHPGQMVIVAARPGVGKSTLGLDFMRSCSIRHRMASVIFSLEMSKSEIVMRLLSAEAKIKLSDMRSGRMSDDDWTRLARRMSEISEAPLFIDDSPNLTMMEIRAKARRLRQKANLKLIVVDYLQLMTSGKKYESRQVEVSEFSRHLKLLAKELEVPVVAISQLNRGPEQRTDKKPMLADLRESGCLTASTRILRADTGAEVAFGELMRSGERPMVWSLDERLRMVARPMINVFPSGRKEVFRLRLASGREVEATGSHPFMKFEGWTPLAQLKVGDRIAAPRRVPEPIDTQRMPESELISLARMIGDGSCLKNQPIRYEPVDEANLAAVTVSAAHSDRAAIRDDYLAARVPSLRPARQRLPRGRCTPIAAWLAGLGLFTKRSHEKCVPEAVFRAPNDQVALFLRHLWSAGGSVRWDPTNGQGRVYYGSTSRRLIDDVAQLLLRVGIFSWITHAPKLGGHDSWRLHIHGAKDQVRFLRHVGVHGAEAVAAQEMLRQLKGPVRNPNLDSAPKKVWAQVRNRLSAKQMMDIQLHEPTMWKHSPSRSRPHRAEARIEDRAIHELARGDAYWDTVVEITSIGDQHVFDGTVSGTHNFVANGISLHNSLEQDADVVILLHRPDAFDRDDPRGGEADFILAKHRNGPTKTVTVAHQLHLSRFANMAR
As to the kind of experiment: DnaB intein splicing inhibitors, dose response, biochemical, cell-free fluorescence (AID 449749). It counts as functional.

In a further assay the target is T2, Protein RecA (Mycobacterium tuberculosis, UniProt P9WHJ3).
T2 sequence (P9WHJ3 whole entry): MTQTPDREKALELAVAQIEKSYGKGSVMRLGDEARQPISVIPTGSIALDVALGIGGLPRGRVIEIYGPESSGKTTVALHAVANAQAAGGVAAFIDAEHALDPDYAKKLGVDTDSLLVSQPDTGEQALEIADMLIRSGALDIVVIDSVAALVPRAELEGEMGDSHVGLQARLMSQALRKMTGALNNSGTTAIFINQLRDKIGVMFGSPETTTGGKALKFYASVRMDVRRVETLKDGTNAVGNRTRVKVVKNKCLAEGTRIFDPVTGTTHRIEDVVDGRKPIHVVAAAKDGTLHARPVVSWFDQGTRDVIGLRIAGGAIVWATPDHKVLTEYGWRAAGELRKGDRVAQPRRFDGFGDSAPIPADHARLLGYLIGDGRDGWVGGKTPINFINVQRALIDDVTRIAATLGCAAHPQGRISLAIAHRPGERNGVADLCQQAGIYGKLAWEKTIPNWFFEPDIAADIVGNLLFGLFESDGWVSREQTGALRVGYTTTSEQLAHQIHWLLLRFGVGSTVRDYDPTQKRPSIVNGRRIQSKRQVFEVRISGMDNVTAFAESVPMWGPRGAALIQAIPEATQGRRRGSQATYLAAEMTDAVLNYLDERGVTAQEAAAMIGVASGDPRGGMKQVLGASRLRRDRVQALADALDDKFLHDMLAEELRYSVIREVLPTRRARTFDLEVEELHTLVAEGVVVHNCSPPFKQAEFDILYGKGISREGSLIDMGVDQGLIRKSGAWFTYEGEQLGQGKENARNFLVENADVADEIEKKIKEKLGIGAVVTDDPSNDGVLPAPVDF
As to the kind of experiment: Fluorescence Cell-Free Homogeneous Dose Retest to Identify Inhibitors of RecA-Intein Splicing Activity. [Related pubchem assays (depositor defined):AID2097, AID2223, AID489010, AID492950]. It counts as functional.

For a further assay, the system named is H4. As to the kind of experiment: Luminescence Cell-Based Dose Response HTS to Identify Activators of 5'UTR Stem-Loop Driven Prion Protein mRNA Translation in H4 Neuroglioblastoma Cells. [Related pubchem assays: 1829 (Project Summary), 1814 (Primary HTS)]. As to conditions: Homo sapiens. The assay is classed as functional.
Assay [3] is described as follows: Luminescence Cell-Based Dose Confirmation HTS to Identify Activators of 5'UTR Stem-Loop Driven Alpha-Synuclein mRNA Translation in H4 Neuroglioblastoma Cells. [Related pubchem assays: 1829 (Project Summary), 1814 (Primary HTS)]. It counts as functional.
Assay [4] deals with T3, Carboxy-terminal domain RNA polymerase II polypeptide A small phosphatase 1 (Homo sapiens, UniProt Q9GZU7).
T3 sequence (Q9GZU7 whole entry): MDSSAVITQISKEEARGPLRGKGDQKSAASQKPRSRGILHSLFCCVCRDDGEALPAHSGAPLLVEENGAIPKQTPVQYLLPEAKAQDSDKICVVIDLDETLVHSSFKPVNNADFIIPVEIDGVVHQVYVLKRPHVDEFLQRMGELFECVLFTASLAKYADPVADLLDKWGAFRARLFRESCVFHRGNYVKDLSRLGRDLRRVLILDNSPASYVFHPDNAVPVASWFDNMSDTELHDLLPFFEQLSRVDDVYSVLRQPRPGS
As to the kind of experiment: inhibitors of CTDSP1, concentration-response testing, biochemical assay, absorbance-based, actives from ultra-high-throughput screening (AID 540297). It counts as functional.

A short description of assay [5]: cytotoxicity toward NIH3T3 fibroblasts, dose response, counter-screen, cell-based, ATP luminescence, mouse fibroblasts (AID 2010).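 Also: cells exposed to compound for about 90 hours before reading.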 It counts as functional.
Assay [6] is described as follows: Luminescence Cell-Based Dose Retest to Confirm Inhibitors of Cancer Stem Cells. [Related pubchem assays (depositor defined):AID2717, AID2721]. The conditions noted are these: Homo sapiens. It counts as functional.
Assay [7] is described as follows: HepG2 cell cytotoxicity, dose response, cytotoxicity control for Shn3 inhibitor project, CellTiter-Glo, cherry-picked (AID 624134). It counts as functional, cell-based.
Assay [8] in a line: Shn3 3'UTR reporter inhibitors, dose response, cell-based, Clone20 osteoblasts, firefly luciferase, cherry-picked (AID 624132).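 Also: firefly luciferase luminescence from reporter carrying the Shn3 3'UTR in osteoblasts.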 It counts as functional.
The nature of assay [9]: control 3'UTR Renilla luciferase suppression, dose response, counter-screen for Shn3 inhibitor project, cell-based, Clone20-Shn3RL, cherry-picked (AID 624133). The assay is classed as functional.
Assay [10] in a line: inhibitors of intracellular T. cruzi replication, confirmation, NIH3T3 host cells, beta-gal luminescence (AID 2044).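 Also: intracellular parasites grown in NIH/3T3 mouse fibroblasts as host cells; luminescent beta-galactosidase reporter signal from transgenic T. cruzi replicating inside host cells; inhibitors lower the luminescence signal.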 The assay is classed as functional, cell-based.
Assay [11] is described as follows: Luminescence Cell-Based Dose Confirmation HTS to Identify Inhibitors of Platelet Dense Granule Release. [Related pubchem assays: 1663 (Primary HTS), 1678 (Summary of Project)]. It counts as functional.
Assay [12] deals with Luciferin 4-monooxygenase (Photinus pyralis, UniProt P08659). The assay is described as follows: firefly luciferase enzyme inhibitors, dose response, biochemical, luminescence (AID 1891).
The next assay concerns SN12K1. The assay is described as follows: cells. It counts as functional.
The next assay relates to P388. The assay is described as follows: cells. It counts as functional.
The test system of the next assay is P388/ADR. As to the kind of experiment: cells. The assay is classed as functional.

Chain of Luciferin 4-monooxygenase (P08659 whole entry): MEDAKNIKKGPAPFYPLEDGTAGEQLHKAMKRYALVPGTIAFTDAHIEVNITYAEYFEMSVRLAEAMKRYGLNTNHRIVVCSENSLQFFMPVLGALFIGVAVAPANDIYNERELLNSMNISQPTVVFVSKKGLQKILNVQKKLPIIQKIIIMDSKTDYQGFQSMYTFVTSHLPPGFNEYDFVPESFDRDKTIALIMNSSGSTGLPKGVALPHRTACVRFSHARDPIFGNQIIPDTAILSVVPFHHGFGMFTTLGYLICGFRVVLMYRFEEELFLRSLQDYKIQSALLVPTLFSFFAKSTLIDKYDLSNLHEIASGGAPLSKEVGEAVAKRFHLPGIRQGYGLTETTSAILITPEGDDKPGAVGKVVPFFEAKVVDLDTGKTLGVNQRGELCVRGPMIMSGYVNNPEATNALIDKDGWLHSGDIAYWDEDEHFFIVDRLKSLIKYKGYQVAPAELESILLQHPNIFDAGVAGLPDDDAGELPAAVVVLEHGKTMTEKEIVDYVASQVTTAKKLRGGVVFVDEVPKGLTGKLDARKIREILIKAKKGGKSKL

Consider `O=C1c2ccccc2-c2c1nc1c([n+]2[O-])CCCC1`, for which the EC50 in assay [1] was 4.63 µM (active); at Protein RecA, 20.1 µM (active); in the assay on H4 it was 6.95 µM (active); in assay [3] it was 0.262 µM (active). For the same compound, in [2], the AC50 was 21 µM (active).

With `O=C(Nc1nc2ccccc2s1)C1CCN(S(=O)(=O)c2cc([N+](=O)[O-])ccc2Cl)CC1`, the IC50 in assay [4] is 3.28 µM (active). Besides, the EC50 in assay [5] was > 60 µM (not active); in assay [10], 0.713 µM (active). Moreover, the AC50 in assay [6] is 25 µM (active); in [7] it was 50.7 µM (active); in assay [8] it was 3.07 µM (active); in assay [9] it was 2.18 µM (active).

Take `COc1cccc2cc(-c3cc(=O)oc4cc(C)c(O)cc34)oc12`: in assay [4], the IC50 was 9.12 µM (active).

With `CCn1cc(C(=O)NCc2ccco2)c(=O)c2cc(F)c(N3CCN(C(=O)c4ccco4)CC3)cc21`, in assay [4], the IC50 was 17.6 µM (active).

`COc1ccc(C(=O)NCC(=O)Nc2ccc(-c3ccccc3)cc2)cc1`: the IC50 in assay [4] is 5.62 µM (active).

Consider `Cc1ccc(OCC(=O)NNC(=O)Cn2nnc(-c3ccccc3)n2)cc1`, for which, in assay [4], the IC50 is 12.7 µM (active).

On to `COc1ccc(NC(=O)CSc2c3c(nc4cc(Cl)ccc24)CCCC3)cc1OC`, for which the AC50 in assay [2] is 8.17 µM (active). Besides, the EC50 was > 112 µM (not active) in assay [11], 3.1 µM (active) at Protein RecA and > 112 µM (not active) in assay [12].

In the case of `Nc1ccn(C2CCC(CO)O2)c(=O)n1` (stereo not drawn), the GI50 was > 100 µM (inactive) with SN12K1 (Homo sapiens, SN12K1); > 100 µM (inactive) in the assay on P388 (Mus musculus, P388); > 80.4 µM (inactive) in the assay on P388/ADR (Mus musculus, P388/ADR).

With `CCOC(=O)NC(=O)c1cn(CCN(CCO)C(=O)NCCCCCCNC(=O)N(CCO)CCn2cc(C(=O)NC(=O)OCC)c(=O)[nH]c2=O)c(=O)[nH]c1=O`, the GI50 was > 100 µM (inactive) with SN12K1 (Homo sapiens, SN12K1); > 100 µM (inactive) with P388 (Mus musculus, P388); > 100 µM (inactive) in the assay with P388/ADR (Mus musculus, P388/ADR).

For `CCCCCCCCCOCC(COP(=O)([O-])OCC[N+](C)(C)C)OC` (stereo not drawn), the GI50 in the assay on SN12K1 (Homo sapiens, SN12K1) was > 100 µM (inactive); in the assay with P388 (Mus musculus, P388), 99.1 µM (inactive); in the assay with P388/ADR (Mus musculus, P388/ADR), > 100 µM (inactive).

With `CNCCNc1ccc2c3c(nn2CCNCCO)-c2c(O)ccc(O)c2C(=O)c13`, the concentration for 50% growth inhibition (GI50) was 0.0673 µM (active) with SN12K1 (Homo sapiens, SN12K1); 0.000867 µM (active) with P388 (Mus musculus, P388); 0.216 µM (active) with P388/ADR (Mus musculus, P388/ADR).

For `CC(C)NC(=O)OCc1c2c(n(C)c1COC(=O)NC(C)C)-c1ccccc1CC2`, the GI50 with SN12K1 (Homo sapiens, SN12K1) is 12 µM (inactive); in the assay with P388 (Mus musculus, P388), 1.79 µM (inactive); with P388/ADR (Mus musculus, P388/ADR), 2 µM (inactive).

On to `CC(/C=C/c1ccco1)=N\NC(=O)c1cc(Cl)ccc1O`, for which the IC50 in [4] was 10.7 µM (active).

In the case of `CC[C@]1(O)C[C@H]2CN(CCc3c([nH]c4ccccc34)[C@@](C(=O)OC)(c3cc4c(cc3OC)N(C)[C@H]3[C@@](O)(C(=O)OC)[C@H](OC(C)=O)[C@]5(CC)C=CCN6CC[C@]43[C@@H]65)C2)C1`, the GI50 with SN12K1 (Homo sapiens, SN12K1) is 0.000348 µM (active); in the assay with P388 (Mus musculus, P388), 0.000674 µM (active); with P388/ADR (Mus musculus, P388/ADR), 0.103 µM (active).

For the compound `Cc1c2cc[n+](C)cc2c(C)c2c1[nH]c1ccccc12`, the GI50 in the assay with SN12K1 was 0.385 µM (active); in the assay on P388 it was 1.12 µM (inactive); in the assay with P388/ADR, 70 µM (inactive).

Consider `CCCCCCc1ccc(O)cc1O` [HEXYLRESORCINOL], for which the GI50 is 37.5 µM (inactive) in the assay on SN12K1 (Homo sapiens, SN12K1); 48.4 µM (inactive) in the assay with P388 (Mus musculus, P388); 45.2 µM (inactive) in the assay on P388/ADR (Mus musculus, P388/ADR). The EC50 is > 30 µM (not active) in assay [5] and 0.781 µM (active) in assay [10].

As to `O=C1CNC(=O)N1` [HYDANTOIN], the GI50 in the assay with SN12K1 (Homo sapiens, SN12K1) was > 1120 µM (inactive); with P388 (Mus musculus, P388), 630 µM (inactive); with P388/ADR (Mus musculus, P388/ADR) it was 706 µM (inactive).

As for `O=C1N[C@@H]2C(=C[C@H](O)[C@@H](O)[C@H]2O)c2cc3c(c(O)c21)OCO3` [NARCICLASINE], the GI50 is 0.045 µM (active) in the assay on SN12K1 (Homo sapiens, SN12K1); 0.045 µM (active) in the assay with P388 (Mus musculus, P388); 0.045 µM (active) in the assay on P388/ADR (Mus musculus, P388/ADR).
